Laboratory results: patent US7678812B2, “Aminotetralin-derived urea modulators of vanilloid VR1 receptor” (Janssen Pharmaceutica NV, priority 2002, dated 2010)

Target: hVR1 receptors (Homo sapiens, UniProt Q8NER1)
Experiment: [3H] RTX binding assay, human VR1
Set-up: expressed in transfected cells; host or cells: HEK293 (membrane preparation)
Conditions: inhibition of [3H] RTX binding, membranes of HEK293 cells transfected with human VR1
Procedure: Compounds of the present invention were tested for their ability to inhibit the binding of [^3H] RTX to hVR1 receptors in a [^3H] RTX binding assay as previously described (Zhang, Sui-Po. Improved ligand binding assays for vanilloid receptors. PCT Int. Appl. (2002), 29 pp. CODEN: PIXXD2 WO 0233411 A1 20020425 AN 2002:315209; Grant, Elfrida R.; Dubin, Adrienne E.; Zhang, Sui-Po; Zivin, Robert A.; Zhong, Zhong Simultaneous intracellular calcium and sodium flux imaging in human vanilloid receptor 1 (VR1)-transfected human embryonic kidney cells: a method to resolve ionic dependence of VR1-mediated cell death. Journal of Pharmacology and Experimental Therapeutics (2002), 300(1), 9-17.)
HEK293 cells were transfected with human VR1 vanilloid receptors and washed with Hank's Balanced Salt Solution, dissociated with cell dissociation buffer (Sigma), and then centrifuged at 1000×g for 5 min. Cell pellets were homogenized in cold 20 mM HEPES buffer, pH 7.4, containing 5.8 mM NaCl, 320 mM sucrose, 2 mM MgCl2, 0.75 CaCl2 and 5 mM KCl and centrifuged at 1000×g for 15 min. The resultant supernate was then centrifuged at 40000×g for 15 min. The pelleted membranes were kept in an −80° C. freezer.
Approximately 120 μg protein/ml from membranes were incubated with indicated concentrations of [^3H] RTX in 0.5 ml of the HEPES buffer (pH 7.4) containing 0.25 mg/mL fatty acid-free bovine serum albumin at 37° C. for 60 min. The reaction mixture was then cooled to 4° C., 0.1 mg α1-acid glycoprotein added to each sample and incubated at 4° C. for 15 min. The samples were centrifuged at 18500×g for 15 min. The tip of the microcentrifuge tube containing the pellet was cut off. Bound radioactivity was quantified by scintillation counting. Non-specific binding was tested in the presence of 200 nM unlabeled RTX.

hVR1 receptors, sequence (Q8NER1 whole entry): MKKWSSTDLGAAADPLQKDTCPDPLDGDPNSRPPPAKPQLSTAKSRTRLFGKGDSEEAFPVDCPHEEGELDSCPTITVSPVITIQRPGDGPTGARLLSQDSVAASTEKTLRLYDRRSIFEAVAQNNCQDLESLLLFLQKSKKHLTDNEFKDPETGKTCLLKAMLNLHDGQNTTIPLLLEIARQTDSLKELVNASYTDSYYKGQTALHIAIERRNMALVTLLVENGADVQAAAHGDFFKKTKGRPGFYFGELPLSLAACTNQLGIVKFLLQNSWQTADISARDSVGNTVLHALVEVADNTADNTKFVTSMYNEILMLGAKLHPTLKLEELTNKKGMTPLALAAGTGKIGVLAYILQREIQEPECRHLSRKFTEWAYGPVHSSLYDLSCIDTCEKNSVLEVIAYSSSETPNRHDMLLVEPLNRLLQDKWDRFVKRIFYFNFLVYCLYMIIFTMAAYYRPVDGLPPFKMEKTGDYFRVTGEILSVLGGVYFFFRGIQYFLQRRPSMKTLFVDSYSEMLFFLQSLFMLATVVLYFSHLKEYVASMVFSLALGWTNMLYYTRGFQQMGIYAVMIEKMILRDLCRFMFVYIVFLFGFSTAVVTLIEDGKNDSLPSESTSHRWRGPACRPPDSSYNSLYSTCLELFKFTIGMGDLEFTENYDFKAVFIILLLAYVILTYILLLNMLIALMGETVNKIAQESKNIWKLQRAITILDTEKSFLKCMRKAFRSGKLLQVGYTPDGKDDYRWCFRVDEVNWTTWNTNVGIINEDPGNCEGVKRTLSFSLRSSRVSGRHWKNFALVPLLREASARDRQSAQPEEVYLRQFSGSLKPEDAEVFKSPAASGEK

SMILES	Ki
O=C(Nc1cccc2cnccc12)NC1CCc2cc(O)ccc2C1Cc1ccccc1 (stereo not drawn) [Compound 56]	277 nM
COc1ccc2c(c1)CC[C@@H](NC(=O)Nc1cccc3cnccc13)[C@@H]2Cc1cccc(Cl)c1 (relative stereo) [Compound 46]	8.81 nM
COc1ccc2c(c1)CCC(NC(=S)NCc1ccc(O)c(OC)c1)C2Cc1cccnc1 (stereo not drawn) [Compound 6]	> 10000 nM
COc1cc2c(cc1OC)C(Cc1ccccc1)C(NC(=O)Nc1cccc3cnccc13)CC2 (stereo not drawn) [Compound 40]	29.6 nM
O=C(Nc1cccc2c[n+]([O-])ccc12)NC1CCc2cc(F)ccc2C1Cc1ccccc1 (single isomer, unassigned) [Compound 97]	45.4 nM
C=CCC1c2ccc(F)cc2CCC1NC(=O)Nc1cccc2cnccc12 (stereo not drawn) [Compound 69]	2.19 nM
COc1ccc2c(c1)CCC(NC(=O)Nc1cccc3cnccc13)C2 (stereo not drawn) [Compound 51]	24 nM
COc1ccc2c(c1)CC[C@@H](NC(=O)Nc1cccc3cnccc13)[C@@H]2Cc1ccccc1Cl (relative stereo) [Compound 52]	12.3 nM
COc1ccc2c(c1)CCC(NC(=S)NCc1ccc(O)c(OC)c1)C2Cc1ccccc1 (stereo not drawn) [Compound 3, 1-(1-Benzyl-6-methoxy-1,2,3,4-tetrahydro-naphthalen-2-yl)-3-(4-hydroxy-3-methoxy-benzyl)-thiourea]	98.9 nM
COc1ccc2c(c1)CCC(NC(=O)Nc1cccc3cnccc13)C2Cc1cccc(C(F)(F)F)c1 (stereo not drawn) [Compound 54]	2.04 nM
Cc1cc2c(NC(=O)NC3CCc4cc(F)ccc4C3Cc3ccccc3)cccc2cn1 (single isomer, unassigned) [Compound 81b]	5.25 nM
O=C(Nc1cccc2cnccc12)NC1CCc2cc(F)ccc2C1CC1CC1 (stereo not drawn) [Compound 71, 1-(1-cyclopropylmethyl-6-fluoro-1,2,3,4-tetrahydronaphthalene-2-yl)-3-isoquinolin-5-yl-urea]	0.84 nM
O=C(Nc1cccc2cnccc12)N[C@H]1CCc2cc(Br)ccc2[C@H]1Cc1ccccc1 (relative stereo) [Compound 39]	0.89 nM
COc1ccc2c(c1)CCC(NC(=O)Nc1cccc3cnccc13)C2Cc1ccc(OCc2ccccc2)cc1 (stereo not drawn) [Compound 74]	11.3 nM
COc1ccc2c(c1)CCC(NC(=S)NCc1ccc3c(c1)OCO3)C2Cc1ccccc1 (stereo not drawn) [Compound 14]	> 10000 nM
COc1ccc2c(c1)CCC(NC(=O)Nc1cccc3cnccc13)C2Cc1ccc(Cl)cc1 (stereo not drawn) [Compound 50]	1.8 nM

SMILES	Ki
COc1cc(CNC(=S)NC2CCc3ccccc3C2Cc2ccccc2)ccc1O (stereo not drawn) [Compound 23]	98.2 nM
O=C(NCc1cccc2cnccc12)NC1CCc2cc(F)ccc2C1Cc1ccccc1 (stereo not drawn) [Compound 60, 1-(1-Benzyl-6-fluoro-1,2,3,4-tetrahydronaphthalene-2-yl)-3-isoquinolin-5-ylmethyl-urea]	4.99 nM
COc1ccc2c(c1)CCC(NC(=O)NCc1ccc3c(c1)OCO3)C2Cc1ccccc1 (stereo not drawn) [Compound 9]	> 10000 nM
O=C(Nc1cccc2c(Cl)nc(Cl)cc12)NC1CCc2cc(F)ccc2C1Cc1ccccc1 (stereo not drawn) [Compound 109]	29.2 nM
COc1ccc2c(c1)CCC(NC(=O)Nc1cccc3cnccc13)C2Cc1ccc(C(F)(F)F)cc1 (stereo not drawn) [Compound 55]	1.55 nM
COc1ccc(CC2c3ccc(OC)cc3CCC2NC(=O)Nc2cccc3cnccc23)cc1 (stereo not drawn) [Compound 70]	5.55 nM
O=C(Nc1cccc2cncc(Cl)c12)NC1CCc2cc(F)ccc2C1Cc1ccccc1 (stereo not drawn) [Compound 99]	2700 nM
O=C(Nc1cccc2ccc(O)cc12)NC1CCc2cc(F)ccc2C1Cc1ccccc1 (stereo not drawn) [Compound 67, 1-(1-Benzyl-6-fluoro-1,2,3,4-tetrahydronaphthalene-2-yl)-3-(7-hydroxy-naphthalen-1-yl)-urea]	1.44 nM
COc1ccc2c(c1)CCC(NC(=S)NCc1ccc(O)c(OC)c1)C2Cc1c[nH]cn1 (stereo not drawn) [Compound 8]	> 10000 nM
O=C(Nc1cccc2cnccc12)NC1CCc2cc(F)c(F)cc2C1Cc1ccccc1 (stereo not drawn) [Compound 66]	1.82 nM
COc1ccc2c(c1)CCC(NC(=O)Nc1cccc3cnccc13)C2Cc1ccccc1C(F)(F)F (stereo not drawn) [Compound 53]	0.48 nM
O=C(Nc1cccc2cnccc12)NC1CCc2cc(Br)ccc2C1 (stereo not drawn) [Compound 58]	2.62 nM
O=C(Nc1cccc2cnccc12)NC1CCc2cc(F)ccc2C1Cc1cccs1 (stereo not drawn) [Compound 76]	3.81 nM
COc1ccc2c(c1)CCC(NC(=O)NCc1ccc(OC)c(OC)c1)C2Cc1ccccc1 (stereo not drawn) [Compound 10]	13000 nM
COCOc1ccc(CNC(=S)NC2CCc3ccccc3C2Cc2ccccc2)cc1OC (stereo not drawn) [Compound 21]	520 nM

Now from value to compound:

Ki	SMILES
7.52 nM	COc1ccc(CC2c3ccc(OC)cc3CCC2NC(=O)Nc2cccc3cnccc23)cc1 (stereo not drawn) [Compound 72]
24.9 nM	O=C(Nc1cccc2cnccc12)NC1CCc2cc(F)ccc2C1 (stereo not drawn) [Compound 37]
1.28 nM	COc1ccc2c(c1)CCC(NC(=O)Nc1cccc3cnccc13)C2Cc1ccc(Br)cc1 (stereo not drawn) [Compound 64]
1.7 nM	O=C(Nc1cccc2cnccc12)NC1CCc2cc(Cl)ccc2C1Cc1ccccc1 (stereo not drawn) [Compound 86]
2.66 nM	COc1ccc2c(c1)CC[C@@H](NC(=O)Nc1cccc3cnccc13)[C@H]2Cc1ccccc1Cl (relative stereo) [Compound 49]
2730 nM	O=C(Nc1cccc2cncc(Cl)c12)N[C@H]1CCc2cc(F)ccc2[C@H]1Cc1ccccc1 (relative stereo) [Compound 98]
1540 nM	COc1ccc2c(c1)CCC(NC(=O)Nc1cccc3cnccc13)C2Cc1cccnc1 (stereo not drawn) [Compound 45]
32.3 nM	O=C(Nc1cccc2c(Cl)nccc12)NC1CCc2cc(F)ccc2C1Cc1ccccc1 (single isomer, unassigned) [Compound 104]
1.96 nM	COc1ccc2c(c1)CC[C@@H](NC(=O)Nc1cccc3cnccc13)[C@H]2Cc1cccc(Cl)c1 (relative stereo) [Compound 44]
1.12 nM	Cc1cc2c(NC(=O)NC3CCc4cc(F)ccc4C3Cc3ccccc3)cccc2cn1 (single isomer, unassigned) [Compound 81a]
53.4 nM	COc1ccc2c(c1)CCC(NC(=O)Nc1cccc3cnccc13)C2Cc1ccccc1OC (stereo not drawn) [Compound 73]
2.6 nM	O=C(Nc1cccc2cnccc12)NC1CCc2cc(Cl)ccc2C1 (stereo not drawn) [Compound 59]
258 nM	COc1ccc2c(c1)CCC(NC(=O)NCc1ccc(O)c(OC)c1)C2Cc1ccccc1 (stereo not drawn) [Compound 19]
9.64 nM	COc1ccc2c(c1)CCC(NC(=O)Nc1cccc3ccc(O)cc13)C2Cc1ccccc1 (stereo not drawn) [Compound 35]
4.58 nM	O=C(Nc1cccc2cnccc12)NC1CCc2ccc(Cl)cc2C1Cc1ccccc1 (stereo not drawn) [Compound 41]
186 nM	O=C(Nc1cccc2c(Cl)nc(Cl)cc12)NC1CCc2cc(F)ccc2C1Cc1ccccc1 (stereo not drawn) [Compound 108]
7.59 nM	O=C(Nc1cccc2cnccc12)NC1CCc2cccc(Cl)c2C1Cc1ccccc1 (stereo not drawn) [Compound 62]
70900 nM	COc1ccc2c(c1)CCC(NC(=O)NCc1ccc(N(C)C3CCCCC3)cc1)C2Cc1ccccc1 (stereo not drawn) [Compound 25]
6.26 nM	COc1ccc2c(c1)CCC(NC(=O)Nc1cccc3cnccc13)C2Cc1c(F)cccc1F (stereo not drawn) [Compound 77]
3.42 nM	O=C(Nc1cccc2cnccc12)NC1CCc2ccc(Cl)cc2C1 (stereo not drawn) [Compound 61]
3600 nM	COc1ccc2c(c1)CCC(NC(=O)NCCc1ccc(OC)c(OC)c1)C2Cc1ccccc1 (stereo not drawn) [Compound 13]
16.5 nM	COc1ccc2c(c1)CCC(NC(=O)Nc1cccc3cnccc13)C2Cc1ccc(C#N)cc1 (stereo not drawn) [Compound 63]
1030 nM	COc1ccc2c(c1)CCC(NC(=O)Nc1cccc3cnccc13)C2Cc1cccnc1 (stereo not drawn) [Compound 47]
3110 nM	COc1ccc2c(c1)CCC(NC(=S)NCc1ccc(OC)c(OC)c1)C2Cc1ccccc1 (stereo not drawn) [Compound 15]
3.66 nM	O=C(Nc1cccc2cnccc12)NC1CCc2ccccc2C1Cc1ccccc1 (stereo not drawn) [Compound 43]
19.3 nM	COc1cc2c(cc1OC)C(Cc1ccccc1)C(NC(=O)Nc1cccc3cnccc13)CC2 (stereo not drawn) [Compound 48]
